Reference: patent US20220378776A1, “DRUG COMBINATION OF QUINOLINE DERIVATIVE AND PD-1 MONOCLONAL ANTIBODY” (CHIA TAI TIANQING PHARMACEUTICAL GROUP CO., LTD, priority 2019, published 2022)

How the values were obtained:
[1] = Expected steady state exposure of sintilimab 200 mg Q3W; assay type: in vivo
Method: In some embodiments of the present application, sintilimab is administered at a single dose of 200 mg by intravenous infusion, once every 3 weeks, and every 3 weeks is a treatment cycle.
The selection of the administration mode of sintilimab in this study was mainly based on the data of safety and exposure (concentration)-response (PD-1 receptor occupancy) relationship in the currently completed preliminary studies, combined with the preclinical in vitro/in vivo efficacy and related comparison data of similar drugs.

[2] = phase 2 clinical trial; cited from earlier work
advanced NSCLC = settings: phase 3, Chinese patients; cited from earlier work

Row | Compound | time of continuous administration to reach steady state ([1]; 200 mg Q3W (4 times)) | mean steady state trough concentration ([1]; 200 mg Q3W continuously for 84 days (4 times)) | overall survival [2] | progression-free survival [2] | overall survival (advanced NSCLC) | progression-free survival (advanced NSCLC) | tolerability (advanced NSCLC)
1 | sintilimab: anti-PD-1 human IgG4 monoclonal antibody; heavy chain SEQ ID NO: 10, light chain SEQ ID NO: 9; antibody D of CN108473977A | 84 days | about 26 μg/mL |  |  |  |  | 
2 | COc1cc2c(Oc3ccc4[nH]c(C)cc4c3F)ccnc2cc1OCC1(N)CC1 [anlotinib, 1-[[[4-(4-fluoro-2-methyl-1H-indol-5-yl)oxy-6-methoxyquinolin-7-yl]oxy]methyl]cyclopropylamine] |  |  | potential benefit in overall survival | improve progression-free survival | prolonged | prolonged | well tolerated
